Converted amounts (≈) assume the structure as drawn.
Columns and labels:
Type in all cases: functional
[1] = tested on: Mycobacterium tuberculosis; test: Antimycobacterial activity against isoniazid and ethionamide resistant Mycobacterium tuberculosis clinical isolate B
[2] = tested on: Mycobacterium tuberculosis; test: Antimycobacterial activity against isoniazid, streptomycin and ethionamide resistant Mycobacterium tuberculosis clinical isolate F
[3] = tested on: Mycobacterium tuberculosis; test: Antimycobacterial activity against isoniazid, streptomycin, rifampicin, ethambutol and ethionamide resistant Mycobacterium tuberculosis clinical isolate G
[4] = tested on: Mycobacterium tuberculosis; test: Antimycobacterial activity against isoniazid, streptomycin, rifampicin, ethambutol, ethionamide and ofloxacin resistant Mycobacterium tuberculosis clinical isolate H
[5] = tested on: Mycobacterium tuberculosis; test: Antimycobacterial activity against isoniazid, streptomycin, ethambutol and ethionamide resistant Mycobacterium tuberculosis clinical isolate A
[6] = tested on: Mycobacterium tuberculosis; test: Antimycobacterial activity against isoniazid and ethionamide resistant Mycobacterium tuberculosis clinical isolate E
[7] = tested on: Mycobacterium tuberculosis; test: Antitubercular activity against multidrug resistant Mycobacterium tuberculosis H37Rv assessed as inhibition of bacterial growth by alamar blue assay
[8] = tested on: Mycobacterium tuberculosis; test: Antitubercular activity against extensively drug resistant Mycobacterium tuberculosis H37Rv assessed as inhibition of bacterial growth by alamar blue assay
[9] = tested on: Mycobacterium tuberculosis; test: Antitubercular activity against extensively drug resistant Mycobacterium tuberculosis clinical isolate 4 by resazurin microtitre assay
[10] = tested on: Mycobacterium tuberculosis; test: Antitubercular activity against extensively drug resistant Mycobacterium tuberculosis clinical isolate 5 by resazurin microtitre assay
[11] = tested on: Mycobacterium tuberculosis; test: Antitubercular activity against multidrug resistant Mycobacterium tuberculosis clinical isolate 8 by resazurin microtitre assay
[12] = tested on: Mycobacterium tuberculosis; test: Antitubercular activity against multidrug resistant Mycobacterium tuberculosis clinical isolate 6 by resazurin microtitre assay
[13] = tested on: Mycobacterium tuberculosis; test: Antitubercular activity against multidrug resistant Mycobacterium tuberculosis clinical isolate 1 by resazurin microtitre assay
[14] = tested on: Mycobacterium tuberculosis; test: Antitubercular activity against extensively drug resistant Mycobacterium tuberculosis clinical isolate 11 by resazurin microtitre assay
[15] = tested on: Mycobacterium tuberculosis; test: Antitubercular activity against extensively drug resistant Mycobacterium tuberculosis clinical isolate 7 by resazurin microtitre assay
[16] = tested on: Mycobacterium tuberculosis; test: Antitubercular activity against multidrug resistant Mycobacterium tuberculosis clinical isolate 9 by resazurin microtitre assay
[17] = tested on: Mycobacterium tuberculosis; test: Antitubercular activity against extensively drug resistant Mycobacterium tuberculosis clinical isolate 8 by resazurin microtitre assay
[18] = tested on: Mycobacterium tuberculosis; test: Antitubercular activity against extensively drug resistant Mycobacterium tuberculosis clinical isolate 3 by resazurin microtitre assay
[19] = tested on: Mycobacterium tuberculosis; test: Antitubercular activity against extensively drug resistant Mycobacterium tuberculosis KMRC 0 0203-0 0197 by resazurin microtitre assay
[20] = tested on: Mycobacterium tuberculosis; test: Antitubercular activity against extensively drug resistant Mycobacterium tuberculosis clinical isolate 1 by resazurin microtitre assay
[21] = tested on: Mycobacterium tuberculosis; test: Antitubercular activity against extensively drug resistant Mycobacterium tuberculosis clinical isolate 9 by resazurin microtitre assay
[22] = tested on: Mycobacterium tuberculosis; test: Antitubercular activity against multidrug resistant Mycobacterium tuberculosis clinical isolate 4 by resazurin microtitre assay
[23] = tested on: Mycobacterium tuberculosis; test: Antitubercular activity against extensively drug resistant Mycobacterium tuberculosis clinical isolate 6 by resazurin microtitre assay
[24] = tested on: Mycobacterium tuberculosis; test: Antimycobacterial activity against isoniazid resistant Mycobacterium tuberculosis clinical isolate incubated for 7 days by resazurin microtitre assay; details: 168 h, time 7 day
[25] = tested on: Mycobacterium tuberculosis; test: Antitubercular activity against extensively drug resistant Mycobacterium tuberculosis clinical isolate 2 by resazurin microtitre assay
[26] = tested on: Mycobacterium tuberculosis; test: Antitubercular activity against multidrug resistant Mycobacterium tuberculosis clinical isolate 7 by resazurin microtitre assay
[27] = tested on: Mycobacterium tuberculosis; test: Antimycobacterial activity against isoniazid, rifampicin, ethambutol, pyrazinamide, streptomycin, capreomycin, amikacin, kanamycin, ofloxacin, and ethionamide resistant Mycobacterium tuberculosis clinical isolate incubated for 7 days by resazurin microtitre assay; details: 168 h, time 7 day
[28] = tested on: Mycobacterium tuberculosis; test: Antitubercular activity against multidrug resistant Mycobacterium tuberculosis clinical isolate 5 by resazurin microtitre assay
[29] = tested on: Mycobacterium tuberculosis; test: Antitubercular activity against multidrug resistant Mycobacterium tuberculosis clinical isolate 10 by resazurin microtitre assay
[30] = tested on: Mycobacterium tuberculosis; test: Antitubercular activity against multidrug resistant Mycobacterium tuberculosis clinical isolate 2 by resazurin microtitre assay
[31] = tested on: Mycobacterium tuberculosis; test: Antimycobacterial activity against isoniazid, rifampicin, ethambutol, pyrazinamide, capreomycin, and ethionamide resistant Mycobacterium tuberculosis clinical isolate incubated for 7 days by resazurin microtitre assay; details: 168 h, time 7 day
[32] = tested on: Mycobacterium tuberculosis; test: Antitubercular activity against extensively drug resistant Mycobacterium tuberculosis clinical isolate 10 by resazurin microtitre assay
[33] = tested on: Mycobacterium tuberculosis; test: Antitubercular activity against multidrug resistant Mycobacterium tuberculosis clinical isolate 3 by resazurin microtitre assay
[34] = tested on: Mycobacterium tuberculosis; test: Antitubercular activity against multidrug resistant Mycobacterium tuberculosis clinical isolate 11 by resazurin microtitre assay
[35] = tested on: Mycobacterium tuberculosis; test: Antimycobacterial activity against multidrug-resistant Mycobacterium tuberculosis H37Rv assessed as inhibition of bacterial growth by alamar blue assay
[36] = tested on: Mycobacterium tuberculosis; test: Antimycobacterial activity against extensively-resistant Mycobacterium tuberculosis H37Rv assessed as inhibition of bacterial growth by alamar blue assay
[37] = tested on: Mycobacterium tuberculosis; test: Antimycobacterial activity against isoniazid, streptomycin, and rifampicin resistant Mycobacterium tuberculosis clinical isolate C

| SMILES | MIC [9] | MIC [10] | MIC [11] | MIC [12] | MIC [13] | MIC [14] | MIC [15] | MIC [16] | MIC [17] | MIC [18] | MIC [19] | MIC [20] | MIC [21] | MIC [22] | MIC [23] | MIC [25] | MIC [26] | MIC [28] | MIC [29] | MIC [30] | further results |
| --- | --- | --- | --- | --- | --- | --- | --- | --- | --- | --- | --- | --- | --- | --- | --- | --- | --- | --- | --- | --- | --- |
| CCc1cc(C(N)=S)ccn1 [ETHIONAMIDE] |  |  |  |  |  |  |  |  |  |  |  |  |  |  |  |  |  |  |  |  | MIC [1]: > 114 µg/mL; MIC [2]: > 80 µg/mL; MIC [3]: > 114 µg/mL; MIC [4]: 114 µg/mL (≈ 686 µM); MIC [5]: 114 µg/mL (≈ 686 µM); MIC [6]: > 80 µg/mL |
| O=C(Cc1ccccc1F)NNC(=O)c1ccncc1 |  |  |  |  |  |  |  |  |  |  |  |  |  |  |  |  |  |  |  |  | MIC [7]: 62.5 µg/mL (≈ 229 µM); MIC [8]: 250 µg/mL (≈ 915 µM) |
| CO[C@H]1/C=C/O[C@@]2(C)Oc3c(C)c(O)c4c(O)c(c(/C=N/N5CCN(C)CC5)c(O)c4c3C2=O)NC(=O)/C(C)=C\C=C\[C@H](C)[C@H](O)[C@@H](C)[C@@H](O)[C@@H](C)[C@H](OC(C)=O)[C@@H]1C [RIFAMPIN] | 6.25 µg/mL (≈ 7.59 µM) | > 200 µg/mL | > 200 µg/mL | > 200 µg/mL | > 200 µg/mL | > 200 µg/mL | > 200 µg/mL | > 200 µg/mL | > 200 µg/mL | > 200 µg/mL | 100 µg/mL (≈ 122 µM) | > 200 µg/mL | > 200 µg/mL | > 200 µg/mL | 100 µg/mL (≈ 122 µM) | > 200 µg/mL | > 200 µg/mL | 3.13 µg/mL (≈ 3.8 µM) | 3.13 µg/mL (≈ 3.8 µM) | > 200 µg/mL | MIC [24]: 0.377 µM (≈ 0.31 µg/mL); MIC [27]: > 12.2 µM; MIC [31]: > 12.2 µM; MIC [32]: 6.25 µg/mL (≈ 7.59 µM); MIC [33]: > 200 µg/mL; MIC [34]: 3.13 µg/mL (≈ 3.8 µM) |
| NC(=O)c1cnccn1 [PYRAZINAMIDE] | > 200 µg/mL | > 200 µg/mL | > 200 µg/mL | > 200 µg/mL | > 200 µg/mL | > 200 µg/mL | > 200 µg/mL | > 200 µg/mL | > 200 µg/mL | > 200 µg/mL | > 200 µg/mL | > 200 µg/mL | > 200 µg/mL | > 200 µg/mL | > 200 µg/mL | > 200 µg/mL | > 200 µg/mL | > 200 µg/mL | > 200 µg/mL | > 200 µg/mL | MIC [32]: > 200 µg/mL; MIC [33]: > 200 µg/mL; MIC [34]: > 200 µg/mL |
| Cc1ccc(NC(=O)c2c(Nc3ccc(Cl)cc3)nn3c(O)cc(C)nc23)cc1 |  |  |  |  |  |  |  |  |  |  |  |  |  |  |  |  |  |  |  |  | MIC [35]: 6.25 µg/mL (≈ 15.3 µM); MIC [36]: > 100 µg/mL |
| CC[C@@H](CO)NCCN[C@@H](CC)CO [ETHAMBUTOL] | 6.25 µg/mL (≈ 30.6 µM) | 6.25 µg/mL (≈ 30.6 µM) | 6.25 µg/mL (≈ 30.6 µM) | 6.25 µg/mL (≈ 30.6 µM) | 6.25 µg/mL (≈ 30.6 µM) | 6.25 µg/mL (≈ 30.6 µM) | 12.5 µg/mL (≈ 61.2 µM) | 3.13 µg/mL (≈ 15.3 µM) | 6.25 µg/mL (≈ 30.6 µM) | 6.25 µg/mL (≈ 30.6 µM) | 6.25 µg/mL (≈ 30.6 µM) | 6.25 µg/mL (≈ 30.6 µM) | 6.25 µg/mL (≈ 30.6 µM) | 6.25 µg/mL (≈ 30.6 µM) | 6.25 µg/mL (≈ 30.6 µM) | 6.25 µg/mL (≈ 30.6 µM) | 6.25 µg/mL (≈ 30.6 µM) | 6.25 µg/mL (≈ 30.6 µM) | 0.78 µg/mL (≈ 3.82 µM) | 6.25 µg/mL (≈ 30.6 µM) | MIC [32]: 6.25 µg/mL (≈ 30.6 µM); MIC [33]: 3.13 µg/mL (≈ 15.3 µM); MIC [34]: 6.25 µg/mL (≈ 30.6 µM) |
| COc1ccccc1NC(=O)c1c(Nc2cccc(C)c2)nn2c(O)cc(C)nc12 |  |  |  |  |  |  |  |  |  |  |  |  |  |  |  |  |  |  |  |  | MIC [35]: 6.25 µg/mL (≈ 15.5 µM); MIC [36]: 12.5 µg/mL (≈ 31 µM) |
| CN[C@@H]1[C@H](O[C@H]2[C@H](O[C@H]3[C@H](O)[C@@H](O)[C@H](N=C(N)N)[C@@H](O)[C@@H]3N=C(N)N)O[C@@H](C)[C@]2(O)C=O)O[C@@H](CO)[C@H](O)[C@H]1O [STREPTOMYCIN] | 0.78 µg/mL (≈ 1.34 µM) | 50 µg/mL (≈ 86 µM) | 3.13 µg/mL (≈ 5.38 µM) | 25 µg/mL (≈ 43 µM) | 100 µg/mL (≈ 172 µM) | 200 µg/mL (≈ 344 µM) | 0.78 µg/mL (≈ 1.34 µM) | 25 µg/mL (≈ 43 µM) | > 200 µg/mL | > 200 µg/mL | 0.78 µg/mL (≈ 1.34 µM) | 0.78 µg/mL (≈ 1.34 µM) | 200 µg/mL (≈ 344 µM) | 0.78 µg/mL (≈ 1.34 µM) | 50 µg/mL (≈ 86 µM) | 50 µg/mL (≈ 86 µM) | 200 µg/mL (≈ 344 µM) | 3.13 µg/mL (≈ 5.38 µM) | > 200 µg/mL | 1.56 µg/mL (≈ 2.68 µM) | MIC [1]: 8 µg/mL (≈ 13.8 µM); MIC [2]: > 16 µg/mL; MIC [37]: 32 µg/mL (≈ 55 µM); MIC [3]: > 64 µg/mL; MIC [4]: > 64 µg/mL; MIC [32]: < 0.09 µg/mL; MIC [5]: > 64 µg/mL; MIC [33]: 0.39 µg/mL (≈ 0.671 µM); MIC [34]: 3.13 µg/mL (≈ 5.38 µM); MIC [6]: 16 µg/mL (≈ 27.5 µM) |
| CC(=O)N1/C(=C/c2ccc(-c3ccccc3)cc2)C(=O)c2ccccc21 |  |  |  |  |  |  |  |  |  |  |  |  |  |  |  |  |  |  |  |  | MIC [24]: 12.3 µM (≈ 4.17 µg/mL); MIC [27]: 12.3 µM (≈ 4.17 µg/mL); MIC [31]: 12.3 µM (≈ 4.17 µg/mL) |
| CC(=O)N1/C(=C/c2ccc(-c3ccc(C)cc3)cc2)C(=O)c2ccccc21 |  |  |  |  |  |  |  |  |  |  |  |  |  |  |  |  |  |  |  |  | MIC [24]: 17.7 µM (≈ 6.26 µg/mL); MIC [27]: 17.7 µM (≈ 6.26 µg/mL); MIC [31]: 17.7 µM (≈ 6.26 µg/mL) |

Reference: ChEMBL document CHEMBL5244273, “Tuberculosis: An Overview of the Immunogenic Response, Disease Progression, and Medicinal Chemistry Efforts in the Last Decade toward the Development of Potential Drugs for Extensively Drug-Resistant Tuberculosis Strains” (J Med Chem, 2021)
